Data reported in patent publication US20070054258A1, “Method of removing mucus and cell treatment solution and preservative solution used therefor” (SYSMEX CORPORATION, priority 2003, published 2007).

Legend:
Format in all cases: cell-based
[1] = test system: cell populations of clinical specimen; assay: Effect of the cell treatment solution on cell morphology; details: 5 minutes compared with 1 minute
Experimental: The cell treatment solutions containing L-cysteine at concentrations of 5 mass %, 10 mass % and 20 mass % were used to treat cell populations of clinical specimen for 1 minute or 5 minutes in the same manner of the above, and the cells were observed. The results of each sample treated with the solutions containing 5 mass %, 10 mass % and 20 mass % L-cysteine for 1 minute and 5 minutes were shown in FIG. 9 to FIG. 14.

[2] = test system: cell populations in a clinical specimen derived from uterine cervix; assay: Effect of removing mucus in clinical specimens of uterine cervix for cytodiagnosis (Giemsa stain, light microscope)
Experimental: Cell populations in a clinical specimen derived from uterine cervix which had been stored in 30 to 60 mass % methanol-based, buffered preservative solution (PreservCyt® manufactured by Cytyc Corporation) was transferred to a 1.5 ml centrifuge tube (about 1×10^5 cells/sample).
The solution was centrifuged (10000 rpm; 1 minute; 4° C.) to separate cells, and the supernatant was removed.
To the cells thus collected was added 1 ml of a mixture (hereinafter referred to as PBS-T) of 0.1% Tween 20 (Sigma) and 0.01M phosphate buffer (PBS available from Sigma; pH7.4) and the cells were resuspended.
The cells were washed by another centrifugation (10000 rpm, 1 minute, 4° C.) for cell separation, removal of the supernatant and cell collection. The cells washed were resuspended in 500 μl of the preservative solution.
10 mass % aqueous solution of N-acetyl-L-cysteine (hereinafter referred to as AcCys) was prepared for a cell treatment solution. This cell treatment solution was added to the cell suspension obtained from the above, and samples of B to E were prepared so that the AcCys concentrations in the samples were 0.625 mass %, 1.25 mass % or 5 mass %.
The solution obtained after the reaction was finished was then centrifuged (10000 rpm; 1 minute; 4° C.) to separate cells, and the supernatant was removed and cells were collected.
The cells were washed by resuspension in 1 ml of PBS-T, another centrifugation (10000 rpm; 1 minute, 4° C.) for cell separation, and removal of the supernatant. This washing procedure was repeated two times.
The cells collected were suspended in 300 μl of 100% methanol and mounted on a glass slide by using Cytospin. Then, cells on the slide were stained with 5% Giemsa Stain Solution (Sysmex) for 15 minutes, washed thoroughly with PBS, and observed under a light microscope to give micrographs of FIG. 1 to 5 for each sample of A to E. […]

[3] = test system: squamous cells; assay: Staining with fluorescent-labeled anti-NMP 179 antibody after treatment; details: cells treated with 5 mass % AcCys (FIG. 8)
Experimental: Squamous cells which were not treated with AcCys and squamous cells which were treated with 5 mass % AcCys were stained with a fluorescent-labeled anti-NMP 179 antibody which reacts with cells derived from uterine cervix except for normal uterine cervix squamous cells, and observed under a microscope to give each result of fluorescent image in FIG. 7 and FIG. 8.

SMILES: N[C@@H](CS)C(=O)O [L-cysteine]
- effect on cell morphology ([1]; 5 mass % L-cysteine): did not affect the cell morphology
- effect on cell morphology ([1]; 10 mass % L-cysteine): did not affect the cell morphology
- effect on cell morphology ([1]; 20 mass % L-cysteine): did not affect the cell morphology

SMILES: CC(=O)N[C@@H](CS)C(=O)O [AcCys, N-acetyl-L-cysteine]
- mucus part (black clumps) after treatment ([2]; AcCys 5 mass % (Sample E), room temperature, 1 minute): black clumps showing mucus part were disappeared
- mucus part (black clumps) after treatment ([2]; AcCys 5 mass % (Sample F), reaction time 24 hours): black clumps showing mucus part were disappeared
- mucus part (black clumps) after treatment ([2]; AcCys under 5 mass % (Samples B to D), room temperature, 1 minute): there remained black clumps which showed mucus part
- specificity of fluorescent anti-NMP179 antibody staining [3]: specific staining
